Reference: article PMC11947101, “A phase Ia study of the MEK1/2 inhibitor PD-0325901 with the c-MET inhibitor crizotinib in patients with advanced solid cancers” (BJC Reports, 2025)

Legend:
[1] = Plasma pharmacokinetics (HPLC-MS/MS) of crizotinib, PD-0325901 and PD-0315209 in patients; format: in vivo, human; conditions: for Decrease in pre-dose concentrations on Days 21 compared to Day -1: Cycle 1 and 2, PD-0325901 8 mg B.D dose only; for Tmax: plasma, po, combination treatment, 4 dose levels, read-out: Time of peak plasma concentrations after oral dosing
Description: PK trough samples (pre-dose and 2-h post dose) were obtained on day 21 of cycles 2, 4, 6, 8, 10 and 12. Plasma concentrations were determined using a validated high-performance liquid chromatography mass spectrometry (HPLC-MS/MS) assay following solid-phase extraction of the plasma sample.

[2] = system: patients with advanced solid tumours; experiment: Phase Ia dose-escalation: safety, DLT and MTD of PD-0325901 with crizotinib
Description: (§1) Patients could remain on combination treatment until disease progression or predefined unacceptable toxicity. At each dose level and before escalation to the next level, a safety study board comprising representatives from the study sponsor and collaborating investigators reviewed individual patient safety and DLTs. DLTs were defined as an almost certainly or probable drug-related adverse events to either drug (Supplementary Table S1), during the first cycle of treatment.
(§2) Safety assessments comprised of physical examination including vital signs, weight, ECOG PS assessment, documentation of adverse events (AEs) and concomitant medication, with regular monitoring of haematology and biochemistry. Ophthalmic examinations (including visual acuity, pressure, perimetry, slit lamp examination, fundoscopy, and optical coherence tomography), ECG and Echocardiography/MUGA were performed at baseline and at pre-defined time-points during the trial. […] At this stage, patients were not required to have measurable disease. Anti-tumour activity was assessed by radiological investigations according to revised RECIST, version 1.1, at baseline (within 28 days before day 1 of cycle 1), then every 2 cycles and at the end of treatment.
(§3) Safety and efficacy data were summarised using descriptive statistics. Evaluable patients for toxicity were those patients that received at least one dose of one or both drugs. Evaluable patients for MTD or dose escalation were those patients who completed cycle 1 or withdrew early for experiencing a DLT. Response analyses (i.e., RECIST 1.1) were performed on an intention-to-treat basis, and any patient who received any dose of study treatment was evaluable for response. Progression-free-survival (PFS) was defined as the time between receiving the first dose of study medication (cycle 1, day -7) to disease progression or death from any cause. Overall survival (OS) was defined as the time between cycle 1, day -7 to death from any cause.

[3] = system: cMET; conditions: cited from earlier work
[4] = system: pERK1/2 and pMEK1/2 levels in skin biopsies; experiment: Pharmacodynamic markers in paired skin biopsies by Western blotting; format: in vivo, human; conditions: in particular at 8 mg B.D PD-0325901
Description: All patients consented to a fresh frozen punch skin biopsy during screening and on cycle 1 day 15 (±7 days). PD markers of MEK1/2 inhibition (pMEK1/2 and pERK1/2 levels) in skin biopsies were assessed by Western blotting, previously described [18, 30]. […] Western blot images were developed using the G:BOX Chemi XX6 gel doc system (Syngene, Cambridge, UK). Densitometry on Western blot images was performed using ImageJ software.

[5] = system: patients with advanced malignancies; conditions: cited from earlier work
[6] = system: patients with advanced solid tumours; conditions: in vivo
Description: as §1, §2, §3

[7] = system: pERK1/2; design: method as in PMID 20215549; conditions: doses ≥2 mg PD-0325901 B.D; cited from earlier work

SMILES	Decrease in pre-dose concentrations on Days 21 compared to Day -1 [1]	Number of drug-related adverse events determined to be related to the named drug ([2]; all cohorts, combination treatment)	Patients requiring a dose reduction of the named drug due to DR-AEs ([2]; combination treatment, all cohorts)	Maximum tolerable dose (MTD) of crizotinib in combination with PD-0325901 ([2]; continuously (days 1–28), with PD-0325901 8 mg B.D) [mg B.D]	Steady state on multiple dosing ([1]; Cycle 1 Day 21 vs Cycle 1 Day 28)	Median trough plasma concentrations ([1]; all cohorts (data not shown)) [ng/mL]	Increase in crizotinib Cmax, Cmin and AUC0-10h with B.D dosing (cohorts 2-4) compared with cohort 1 (O.D) ([1]; days 21 and 28, p < 0.05)	Effect of PD-0325901 dose escalation (cohort 2 to cohort 4) on PK parameters of crizotinib ([1]; human, in vivo)	Tmax ([1]; human) [h]	Pre-clinically predicted effective concentration to inhibit c-MET [3] [ng/mL]	Maximum tolerable dose (MTD) of PD-0325901 in combination with crizotinib ([2]; days 1–21 of 28-day cycle, with crizotinib 200 mg B.D) [mg B.D]	Plasma concentrations relative to those required to inhibit MEK1/2 activity ([1]; all dose levels)	pMEK1/2 levels in skin biopsies, post- vs pre-treatment [4]	Maximum tolerated dose (MTD), single agent ([5]; continuously, subsequently revised due to late retinal vein occlusion)	Doses resulting in intolerable toxicity, single agent ([5]; irrespective of the schedule)	AUC at day 21 compared to day 1 (first dose), single agent ([5]; multiple B.D dosing)	Serious adverse events thought to be drug-related [6]	Suppression of pERK1/2 in melanoma patient samples [7] [%]
O=C(O)c1ccc(F)c(F)c1Nc1ccc(I)cc1F [PD-0315209]	1.8–2.2 fold																	
C[C@@H](Oc1cc(-c2cnn(C3CCNCC3)c2)cnc1N)c1c(Cl)ccc(F)c1Cl [crizotinib]		124	No patients	200	reached steady state by day 21	> 62	1.6–2.6 fold	did not appear to affect	2.76 to 5.21	62								
O=C(NOC[C@H](O)CO)c1ccc(F)c(F)c1Nc1ccc(I)cc1F [PD-0325901]	1.8–2.2 fold								1.02 to 2.27		8	reached levels consistent with those required to inhibit MEK1/2 activity at all dose levels	significant accumulation	15 mg twice daily (B.D)	> 15 mg twice a day (B.D)	slightly higher	one	≥ 60
